Laboratory results as given in publication PMC12746157, “Light-Regulated Agonists Spatiotemporally Activating the Vitamin D Receptor Mitigate Psoriasis-like Inflammation in Mice without Inducing Hypercalcemia” (ACS Central Science, 2025).

How the values were obtained:
Type in all cases: physicochemical
[1] = Photostationary state (PSS) determination by HPLC-MS in aqueous assay buffer; settings: for PSS365 (% cis) / PSS525 (%trans): 21 °C, HPLC-MS, 60 μM, aqueous buffer 0.6% DMSO; for PSS365 (% cis): 3 min illumination 365 nm; for PSS525 (%trans): 3 min illumination 525 nm
Procedure: (§1) The UV–vis absorbance spectra of all molecules were measured in the dark and after the application of light of different wavelengths ranging from 365 to 770 nm (Figure A and Figures S1–S3). […] Consequently, violet/UV light below 405 nm efficiently promoted photoisomerization, which produced a dramatic decrease in the π-π* band and a significant increase in the n-π* band at around 445 nm (Table ). […] The proportion of molecules at the PSS in trans isomer upon constant illumination with light at 525 nm and cis at 365 nm was in general above 50%, reaching a remarkable >99% for compound 11d (Table and Figures S4 and S5). […] The greater stability of the trans isomer was consistent with previous quantum mechanical and molecular mechanics predictions. Measuring the photoisomerization properties of compound PhotoVDRM allowed us to determine the photoisomerization quantum yields of the compound by solving a differential equation for photoisomerization. We used MATLAB to perform regression and arrive at the following photoisomerization quantum yields: ϕ365 nm (trans) = 0.0427, ϕ365 nm (cis) = 0.0501, ϕ470 nm (trans) = 0.1857, and ϕ470 nm (cis) = 0.2281 (Figure S9). Compound PhotoVDRM was also evaluated in aqueous buffer used for pharmacological experiments (0.5% DMSO) showing a thermal relaxation of 3 h, almost 7 times faster than in pure DMSO (Figure B). […] A deeper photocharacterization of PhotoVDRM allowed us to measure the kinetics of photoconversion upon constant illumination with two wavelengths and three light intensities (Figure D and Figure S10). […] Indeed, with LED devices producing light at intensities as low as 0.05 mW/mm^2 we were able to transform trans to cis in around 15.5 s. This time was reduced to 6 and 2 s when the light intensity was increased to 0.15 and 0.75 mW/mm^2. […] Therefore, we proceeded to test the ability of the chemical library to activate the VDR under different light conditions.
Photostationary state (PSS) determination. In a transparent vial, solutions of the compounds were prepared at a concentration of 60 µM from a 10 mM stock in DMSO, using the assay buffer of pharmacological experiments for dilution. Prior to illumination, a volume of 500 µL was transferred to an amber vial for the "dark" sample. The same procedure was repeated after exposing the transparent vial containing the 60 µM solutions to the following light conditions:
365nm for 3 minutes and 525nm for 3 minutes. […]
difference on isomeric proportions. For each sample, 20 µL was analyzed by HPLC-MS, and the isomer ratios were determined at the isosbestic point.
Isosbestic point determination. The solvent percentage for the elution of each isomer were calculated based on their retention times from HPLC analysis. Subsequently, 50 µM solutions were prepared from the 10 mM DMSO stock solution of each compound using the previously determined HPLC solvent mixture. The UV spectrum for each solution was recorded after illumination at 365 nm (30 seconds), at 400 nm (30 seconds), and at 525 nm (30 seconds). The spectra were overlaid to identify the isosbestic point of maximum intensity.
HPLC conditions. Analytical HPLC was performed on a Thermo Ultimate 3000SD (Thermo Scientific Dionex) coupled to a PDA detector and Mass Spectrometer LTQ XL ESI-ion trap (Thermo Scientific). Cromatographic separations were performed using a ZORBAX Eclipse Plus C18 (4.6 x 150mm; 3.5µm) column. The mobile phase consisted of an isocratic mixture of solvent A (water with 0.05% of formic acid) and solvent B (acetonitrile with 0.05% formic acid) at a 3:7 ratio for compounds 10a-d and a 2:3 ratio for compounds 11a-d and 12a-d. […]

[2] = Proportions of cis and trans at the photostationary state in DMSO from absorbance spectra (Ernst Fischer method)
Procedure: 2. Photochemical characterization.
(§2) A 50 µM solution of each compound in DMSO was dispensed into a transparent 96-well plate (200 µL per well). The absorption spectra were recorded from 300 to 600 nm with 2 nm fixed intervals using a Tecan Spark 20M Multimode microplate reader. Initial measurements were performed in the dark, followed by spectra acquired immediately after each 3 min period of light irradiation at different wavelengths using 96-well LED array plates (LEDA Teleopto). Theoretical absorbance spectra corresponding to the pure cis isomer (100%) of each compound were calculated in order to obtain the theoretical percentage of cis isomer at each wavelength, according to the method described by Ernst Fischer (1967). […]
Table S6. Proportions of cis and trans at the photostationary state in DMSO. […]

[3] = UV-Vis absorption spectra and thermal relaxation of the cis isomers in DMSO; settings: 60 μM in 100% DMSO, 37 °C; for λn−π* (cis): after illumination; for λπ–π* (trans): dark
Procedure: as §1
2. Photochemical characterization. […]
as §2, with “(200” for “A 50 µM solution of each compound in DMSO was dispensed into a transparent 96-well plate (200”, “(1967). Thermal relaxation kinetics of the experimental cis isomers were assessed in quartz cuvettes (10 mm optical path) containing freshly prepared 50” for “(1967).”
Dark state absorbance at 365 nm was recorded at 37
ºC using a ThermoFisher Evolution 350 UV-Vis spectrophotometer. Samples were then irradiated for 3 minutes at 365 nm with a CoolLED pE-4000 light sourceto induce trans → cis photoisomerization.. Absorbance at 365 nm was subsequently monitored over 48 h: every 15 min during the first 24 h, and every 60 min during the following 24 h. Relaxation half-lives were determined by fitting the absorbance-time data to a […] exponential model using GraphPad Prism v10.4.1. […]

Compound: COC(=O)c1ccc(-c2cccc(/N=N/c3ccc(OCC(O)C(C)(C)C)c(C)c3)c2)cc1 (centres unmarked) [Compound 10a]
- PSS365 (% cis) [1]: 83%
- PSS525 (%trans) [1]: 86%
- %cis at the photostationary state ([2]; 365 nm): 93,70%
- %trans at the photostationary state ([2]; 365 nm): 6,30%
- %cis at the photostationary state ([2]; 380 nm): 91,83%
- %trans at the photostationary state ([2]; 380 nm): 8,17%
- %cis at the photostationary state ([2]; 405 nm): 60,42%
- %trans at the photostationary state ([2]; 405 nm): 39,58%
- %cis at the photostationary state ([2]; 420 nm): 58,05%
- %trans at the photostationary state ([2]; 420 nm): 41,95%
- %cis at the photostationary state ([2]; 470 nm): 29,15%
- %trans at the photostationary state ([2]; 470 nm): 70,85%
- %cis at the photostationary state ([2]; 500 nm): 25,54%
- %trans at the photostationary state ([2]; 500 nm): 74,46%
- %cis at the photostationary state ([2]; 530 nm): 20,56%
- %trans at the photostationary state ([2]; 530 nm): 79,44%
- t 1/2 (thermal relaxation of cis) [3]: 9.3 h
- λn−π* (cis) [3]: 446 nm
- λπ–π* (trans) [3]: 366 nm

Compound: COC(=O)c1ccc(-c2cccc(/N=N/c3ccc(OCC(O)C(C)(C)C)cc3C)c2)cc1 (centres unmarked) [Compound 10b]
- PSS365 (% cis) [1]: 78%
- PSS525 (%trans) [1]: 73%
- %cis at the photostationary state ([2]; 365 nm): 97,26%
- %trans at the photostationary state ([2]; 365 nm): 2,74%
- %cis at the photostationary state ([2]; 380 nm): 96,48%
- %trans at the photostationary state ([2]; 380 nm): 3,52%
- %cis at the photostationary state ([2]; 405 nm): 66,00%
- %trans at the photostationary state ([2]; 405 nm): 34,00%
- %cis at the photostationary state ([2]; 420 nm): 62,72%
- %trans at the photostationary state ([2]; 420 nm): 37,28%
- %cis at the photostationary state ([2]; 470 nm): 34,89%
- %trans at the photostationary state ([2]; 470 nm): 65,11%
- %cis at the photostationary state ([2]; 500 nm): 35,65%
- %trans at the photostationary state ([2]; 500 nm): 64,35%
- %cis at the photostationary state ([2]; 530 nm): 31,97%
- %trans at the photostationary state ([2]; 530 nm): 68,03%
- t 1/2 (thermal relaxation of cis) [3]: 7.6 h
- λn−π* (cis) [3]: 440 nm
- λπ–π* (trans) [3]: 360 nm

Compound: COC(=O)c1ccc(-c2cccc(/N=N/c3ccc(OCC(O)C(C)(C)C)c(C)c3)c2)c(C)c1 (centres unmarked) [Compound 10c]
- PSS365 (% cis) [1]: 73%
- PSS525 (%trans) [1]: 83%
- %cis at the photostationary state ([2]; 365 nm): 97,00%
- %trans at the photostationary state ([2]; 365 nm): 3,00%
- %cis at the photostationary state ([2]; 380 nm): 95,62%
- %trans at the photostationary state ([2]; 380 nm): 4,38%
- %cis at the photostationary state ([2]; 405 nm): 61,14%
- %trans at the photostationary state ([2]; 405 nm): 38,86%
- %cis at the photostationary state ([2]; 420 nm): 59,71%
- %trans at the photostationary state ([2]; 420 nm): 40,29%
- %cis at the photostationary state ([2]; 470 nm): 30,53%
- %trans at the photostationary state ([2]; 470 nm): 69,47%
- %cis at the photostationary state ([2]; 500 nm): 26,82%
- %trans at the photostationary state ([2]; 500 nm): 73,18%
- %cis at the photostationary state ([2]; 530 nm): 21,34%
- %trans at the photostationary state ([2]; 530 nm): 78,66%
- t 1/2 (thermal relaxation of cis) [3]: 12.5 h
- λn−π* (cis) [3]: 444 nm
- λπ–π* (trans) [3]: 366 nm

Compound: COC(=O)c1ccc(-c2cccc(/N=N/c3ccc(OCC(O)C(C)(C)C)cc3C)c2)c(C)c1 (centres unmarked) [Compound 10d]
- PSS365 (% cis) [1]: 88%
- PSS525 (%trans) [1]: 81%
- %cis at the photostationary state ([2]; 365 nm): 96,30%
- %trans at the photostationary state ([2]; 365 nm): 3,70%
- %cis at the photostationary state ([2]; 380 nm): 95,32%
- %trans at the photostationary state ([2]; 380 nm): 4,68%
- %cis at the photostationary state ([2]; 405 nm): 62,22%
- %trans at the photostationary state ([2]; 405 nm): 37,78%
- %cis at the photostationary state ([2]; 420 nm): 59,99%
- %trans at the photostationary state ([2]; 420 nm): 40,01%
- %cis at the photostationary state ([2]; 470 nm): 29,82%
- %trans at the photostationary state ([2]; 470 nm): 70,18%
- %cis at the photostationary state ([2]; 500 nm): 25,21%
- %trans at the photostationary state ([2]; 500 nm): 74,79%
- %cis at the photostationary state ([2]; 530 nm): 20,03%
- %trans at the photostationary state ([2]; 530 nm): 79,97%
- t 1/2 (thermal relaxation of cis) [3]: 8.2 h
- λn−π* (cis) [3]: 438 nm
- λπ–π* (trans) [3]: 360 nm

Compound: Cc1cc(/N=N/c2cccc(-c3ccc(C(=O)O)cc3)c2)ccc1OCC(O)C(C)(C)C (centres unmarked) [Compound 11a]
- PSS365 (% cis) [1]: 94%
- PSS525 (%trans) [1]: 74%
- %cis at the photostationary state ([2]; 365 nm): 94,52%
- %trans at the photostationary state ([2]; 365 nm): 5,48%
- %cis at the photostationary state ([2]; 380 nm): 92,81%
- %trans at the photostationary state ([2]; 380 nm): 7,19%
- %cis at the photostationary state ([2]; 405 nm): 60,54%
- %trans at the photostationary state ([2]; 405 nm): 39,46%
- %cis at the photostationary state ([2]; 420 nm): 58,09%
- %trans at the photostationary state ([2]; 420 nm): 41,91%
- %cis at the photostationary state ([2]; 470 nm): 29,80%
- %trans at the photostationary state ([2]; 470 nm): 70,20%
- %cis at the photostationary state ([2]; 500 nm): 26,59%
- %trans at the photostationary state ([2]; 500 nm): 73,41%
- %cis at the photostationary state ([2]; 530 nm): 21,22%
- %trans at the photostationary state ([2]; 530 nm): 78,78%
- t 1/2 (thermal relaxation of cis) [3]: 9.1 h
- λn−π* (cis) [3]: 440 nm
- λπ–π* (trans) [3]: 366 nm

Compound: Cc1cc(OCC(O)C(C)(C)C)ccc1N=Nc1cccc(-c2ccc(C(=O)O)cc2)c1 (centres unmarked) [Compound 11b]
- PSS365 (% cis) [1]: 95%
- PSS525 (%trans) [1]: 55%
- proportion of cis at PSS 460 nm ([1]; 460 nm, assay buffer (Figure S4D)): 63%
- %cis at the photostationary state ([2]; 365 nm): 96,87%
- %trans at the photostationary state ([2]; 365 nm): 3,13%
- %cis at the photostationary state ([2]; 380 nm): 95,62%
- %trans at the photostationary state ([2]; 380 nm): 4,38%
- %cis at the photostationary state ([2]; 405 nm): 63,64%
- %trans at the photostationary state ([2]; 405 nm): 36,36%
- %cis at the photostationary state ([2]; 420 nm): 60,47%
- %trans at the photostationary state ([2]; 420 nm): 39,53%
- %cis at the photostationary state ([2]; 420 nm, listed as PhotoVDRM): up to 60%
- %cis at the photostationary state ([2]; 470 nm): 31,30%
- %trans at the photostationary state ([2]; 470 nm): 68,70%
- %cis at the photostationary state ([2]; 500 nm): 32,81%
- %trans at the photostationary state ([2]; 500 nm): 67,19%
- %cis at the photostationary state ([2]; 530 nm): 29,14%
- %trans at the photostationary state ([2]; 530 nm): 70,86%
- t 1/2 (thermal relaxation of cis) [3]: 20.5 h
- λn−π* (cis) [3]: 442 nm
- λπ–π* (trans) [3]: 362 nm
